Structures can show the parent of a compound that is named as a salt.

One may read the IC50 as the concentration that inhibits the measured activity by half. A low value points to greater potency.

What all share (format): biochemical
One test addresses human FGFR-1 (Homo sapiens, UniProt P11362). The test can be described thus: FGFR-1 high ATP kinase assay (TR-FRET). Particulars: 2 mM ATP; 15 min pre-incubation with enzyme; compounds of the invention. A general note: In TR-FRET formats the signal depends on donor and acceptor labels being close together.
A further test deals with human mTOR (Homo sapiens (Human), UniProt P42345). The test can be described thus: mTOR kinase assay (TR-FRET, for comparative purposes). Particulars: mean inhibition at 1 μM test compound; 40 μM ATP.
Another test has as its target human FGFR-3 (Homo sapiens (Human), UniProt P22607). Briefly: FGFR-3 kinase assay (TR-FRET). Particulars: 10 μM ATP; 15 min pre-incubation with enzyme; compounds of the invention.

Sequence of human FGFR-3 (P22607 397-806): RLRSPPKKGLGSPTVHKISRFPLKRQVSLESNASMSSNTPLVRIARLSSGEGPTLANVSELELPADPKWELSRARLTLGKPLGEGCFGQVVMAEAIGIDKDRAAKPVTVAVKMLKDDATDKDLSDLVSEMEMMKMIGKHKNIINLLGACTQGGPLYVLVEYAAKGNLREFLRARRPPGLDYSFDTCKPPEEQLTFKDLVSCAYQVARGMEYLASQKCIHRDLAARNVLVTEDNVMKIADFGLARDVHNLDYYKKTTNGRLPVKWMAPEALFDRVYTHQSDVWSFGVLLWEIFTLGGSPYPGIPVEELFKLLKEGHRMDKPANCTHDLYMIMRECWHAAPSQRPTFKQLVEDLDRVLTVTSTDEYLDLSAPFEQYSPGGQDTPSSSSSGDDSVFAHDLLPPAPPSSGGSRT
Sequence of human mTOR (P42345 1360-2549): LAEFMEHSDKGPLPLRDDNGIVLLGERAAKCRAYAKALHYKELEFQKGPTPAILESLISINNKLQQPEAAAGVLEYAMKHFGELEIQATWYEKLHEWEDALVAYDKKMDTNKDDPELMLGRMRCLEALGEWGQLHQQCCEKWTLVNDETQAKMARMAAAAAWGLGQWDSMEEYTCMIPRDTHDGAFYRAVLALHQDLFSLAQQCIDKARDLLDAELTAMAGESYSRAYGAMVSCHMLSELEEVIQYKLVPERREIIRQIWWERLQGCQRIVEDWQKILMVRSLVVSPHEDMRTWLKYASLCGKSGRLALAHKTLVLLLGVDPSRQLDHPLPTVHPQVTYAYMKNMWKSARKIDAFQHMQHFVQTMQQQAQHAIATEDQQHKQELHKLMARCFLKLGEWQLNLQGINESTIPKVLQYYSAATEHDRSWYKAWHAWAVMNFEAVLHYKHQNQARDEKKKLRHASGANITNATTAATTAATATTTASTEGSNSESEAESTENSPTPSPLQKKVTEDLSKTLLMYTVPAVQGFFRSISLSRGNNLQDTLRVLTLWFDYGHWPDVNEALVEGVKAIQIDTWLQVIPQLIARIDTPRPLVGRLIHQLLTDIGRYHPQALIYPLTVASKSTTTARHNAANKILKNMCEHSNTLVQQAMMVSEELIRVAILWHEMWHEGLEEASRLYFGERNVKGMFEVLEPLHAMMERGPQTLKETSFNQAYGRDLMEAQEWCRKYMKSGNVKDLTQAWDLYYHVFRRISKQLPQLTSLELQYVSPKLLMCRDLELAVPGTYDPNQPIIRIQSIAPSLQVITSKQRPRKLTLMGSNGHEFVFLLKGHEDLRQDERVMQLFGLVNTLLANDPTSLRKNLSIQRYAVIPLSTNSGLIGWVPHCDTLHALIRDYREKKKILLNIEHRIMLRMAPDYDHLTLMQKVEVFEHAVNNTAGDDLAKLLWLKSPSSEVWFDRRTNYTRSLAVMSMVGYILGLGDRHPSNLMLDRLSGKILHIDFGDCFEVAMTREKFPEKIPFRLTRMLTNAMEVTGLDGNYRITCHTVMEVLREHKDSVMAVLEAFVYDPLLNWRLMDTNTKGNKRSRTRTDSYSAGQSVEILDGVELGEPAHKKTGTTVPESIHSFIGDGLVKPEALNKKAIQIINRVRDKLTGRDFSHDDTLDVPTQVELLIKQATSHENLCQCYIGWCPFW
Sequence of human FGFR-1 (P11362 22-822 limits assumed): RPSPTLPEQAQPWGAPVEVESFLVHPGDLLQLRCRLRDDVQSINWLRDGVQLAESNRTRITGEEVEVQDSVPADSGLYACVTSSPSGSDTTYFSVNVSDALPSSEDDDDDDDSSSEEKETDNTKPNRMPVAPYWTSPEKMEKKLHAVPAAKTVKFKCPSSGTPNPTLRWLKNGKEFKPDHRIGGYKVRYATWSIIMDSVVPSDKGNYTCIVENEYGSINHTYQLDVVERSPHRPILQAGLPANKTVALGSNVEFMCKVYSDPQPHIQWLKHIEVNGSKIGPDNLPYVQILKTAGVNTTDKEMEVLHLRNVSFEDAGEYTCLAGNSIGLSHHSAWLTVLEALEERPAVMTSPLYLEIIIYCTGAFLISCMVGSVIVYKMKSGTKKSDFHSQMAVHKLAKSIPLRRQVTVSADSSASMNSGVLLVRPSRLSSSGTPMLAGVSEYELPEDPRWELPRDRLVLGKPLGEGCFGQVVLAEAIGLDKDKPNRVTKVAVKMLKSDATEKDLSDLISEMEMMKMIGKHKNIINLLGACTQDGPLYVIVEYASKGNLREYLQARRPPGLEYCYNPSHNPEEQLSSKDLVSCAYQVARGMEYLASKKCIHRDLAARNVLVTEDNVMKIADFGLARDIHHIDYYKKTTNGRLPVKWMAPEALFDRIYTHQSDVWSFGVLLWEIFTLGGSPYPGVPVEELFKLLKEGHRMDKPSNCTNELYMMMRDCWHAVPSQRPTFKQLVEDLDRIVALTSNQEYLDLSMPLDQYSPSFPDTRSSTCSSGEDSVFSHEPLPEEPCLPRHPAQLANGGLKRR

For the compound `CCOCc1c(-c2cc3cc(C)cc(OC)c3s2)c2c(N)ncnn2c1CN1CCC(O)CC1` [Example 98], the concentration for half-maximal inhibition (IC50) against human FGFR-1 amounted to 17 nM. Also, the “mTOR inhibition @ 1 μM” value on human mTOR is “no inhib. effect detect”.

On human FGFR-3, `COc1cc(C)cc2cc(-c3c(CN4CCC(O)C4)c(CN4CCNCC4)n4ncnc(N)c34)sc12` (racemic) [Example 42, rac-1-{[4-Amino-5-(7-methoxy-5-methyl-1-benzothiophen-2-yl)-7-(piperazin-1-ylmethyl)pyrrolo-[2,1-f][1,2,4]triazin-6-yl]methyl}pyrrolidin-3-ol trihydrochloride] displayed an IC50 of 18.4 nM. In addition, at human mTOR, the “mTOR inhibition @ 1 μM” value is “no inhib. effect detect”. For the compound `COCc1c(-c2cc3cc(C)ccc3s2)c2c(N)ncnn2c1CN1CCNC(=O)C1` [Example 89, 4-{[4-Amino-6-(methoxymethyl)-5-(5-methyl-1-benzothiophen-2-yl)pyrrolo[2,1-f][1,2,4]triazin-7-yl]methyl}piperazin-2-one], on human FGFR-1, the IC50 came to 82.9 nM. In addition, the “mTOR inhibition @ 1 μM” value on human mTOR is listed as “no inhib. effect detect”. With `CCOCc1c(-c2cc3cc(C)cc(OC)c3s2)c2c(N)ncnn2c1CN1CCNCC1` [Example 18, 6-(Ethoxymethyl)-5-(7-methoxy-5-methyl-1-benzothiophen-2-yl)-7-(piperazin-1-ylmethyl)pyrrolo-[2,1-f][1,2,4]triazin-4-amine], the “mTOR inhibition @ 1 μM” value on human mTOR is listed as “no inhib. effect detect”.

`COc1cc(C)cc2cc(-c3c(COC4CCC4)c(CN4CCNCC4)n4ncnc(N)c34)sc12` [Example 26, 6-[(Cyclobutyloxy)methyl]-5-(7-methoxy-5-methyl-1-benzothiophen-2-yl)-7-(piperazin-1-ylmethyl)pyrrolo[2,1-f][1,2,4]triazin-4-amine]: the IC50 on human FGFR-1 was 0.9 nM; against human FGFR-3 it was 4.9 nM. On to `COc1cc(C)cc2cc(-c3c(COc4ccccc4)c(CN4CCNCC4)n4ncnc(N)c34)sc12` [Example 35, 5-(7-Methoxy-5-methyl-1-benzothiophen-2-yl)-6-(phenoxymethyl)-7-(piperazin-1-ylmethyl)pyrrolo[2,1-f][1,2,4]triazin-4-amine bis(formiate)], for which the 50% inhibitory concentration (IC50) against human FGFR-1 was determined as 61.3 nM; on human FGFR-3, 65.4 nM. In the same order, the values of `COc1cc(C)cc2cc(-c3c(CNCC(C)(C)O)c(C)n4ncnc(N)c34)sc12` [Example 77, 1-({[4-Amino-5-(7-methoxy-5-methyl-1-benzothiophen-2-yl)-7-methylpyrrolo[2,1-f][1,2,4]triazin-6-yl]methyl}amino)-2-methylpropan-2-ol formiate] are 1.4 nM and 3.8 nM. Consider `COc1cc(C)cc2cc(-c3c(COCC(F)(F)F)c(CN4CCNCC4)n4ncnc(N)c34)sc12` [Example 29, 5-(7-Methoxy-5-methyl-1-benzothiophen-2-yl)-7-(piperazin-1-ylmethyl)-6-[(2,2,2-trifluoroethoxy)methyl]pyrrolo[2,1-f][1,2,4]triazin-4-amine formiate], for which the IC50 is 1.6 nM on human FGFR-1 and 2.5 nM against human FGFR-3.

On to `CCOCc1c(-c2cc3cc(C)cc(OC)c3s2)c2c(N)ncnn2c1CN1CCS(=O)(=O)CC1` [Example 99], for which the figures for the half-maximal inhibitory concentration (IC50) against human FGFR-1 and on human FGFR-3 were 24.8 nM and 36.9 nM, respectively.

Take `COc1cc(C)cc2cc(-c3c(CNC(C)=O)c(CN4CCN(C=O)CC4)n4ncnc(N)c34)sc12` [Example 65, N-({4-Amino-7-[(4-formylpiperazin-1-yl)methyl]-5-(7-methoxy-5-methyl-1-benzothiophen-2-yl)pyrrolo[2,1-f][1,2,4]triazin-6-yl}methyl)acetamide formiate]: the half-inhibitory concentration (IC50) against human FGFR-1 is 5.6 nM; against human FGFR-3 it was 3.1 nM. Taken in the same sequence, the figures for `COc1cc(C)cc2cc(-c3c(CO)c(C(C)(C)O)n4ncnc(N)c34)sc12` [Example 73, 2-[4-Amino-6-(hydroxymethyl)-5-(7-methoxy-5-methyl-1-benzothiophen-2-yl)pyrrolo[2,1-f]-[1,2,4]triazin-7-yl]propan-2-ol] were 4.4 nM and 12.2 nM. Taken in the same sequence, the figures for `CCOCc1c(-c2cc3cc(C)cc(OC)c3s2)c2c(N)ncnn2c1CN1CC[C@](C)(N)C1` [Example 15, 7-{[(3S)-3-Amino-3-methylpyrrolidin-1-yl]methyl}-6-(ethoxymethyl)-5-(7-methoxy-5-methyl-1-benzothiophen-2-yl)pyrrolo[2,1-f][1,2,4]triazin-4-amine] were 1 nM and 1 nM. As to `COC(=O)c1c(-c2cc3cc(C)cc(OC)c3s2)c2c(N)ncnn2c1C(=O)N1CCNCC1` [Example 60, Methyl 4-amino-5-(7-methoxy-5-methyl-1-benzothiophen-2-yl)-7-(piperazin-1-ylcarbonyl)pyrrolo-[2,1-f][1,2,4]triazine-6-carboxylate bis(formiate)], the half-maximal inhibitory concentration (IC50) against human FGFR-1 turned out to be 16.2 nM; against human FGFR-3, 77.9 nM.

In the case of `CCOCc1c(-c2cc3cc(C)cc(OC)c3s2)c2c(N)ncnn2c1C(O)C1CC1` (stereo not shown) [Example 91, [4-Amino-6-(ethoxymethyl)-5-(7-methoxy-5-methyl-1-benzothiophen-2-yl)pyrrolo[2,1-f][1,2,4]-triazin-7-yl](cyclopropyl)methanol], the IC50 was determined as 52.9 nM on human FGFR-1 and 31.1 nM on human FGFR-3.

Turning to `COc1cc(C)cc2cc(-c3c(CO)c(CN4CCNC(=O)C4)n4ncnc(N)c34)sc12` [Example 13, 4-{[4-Amino-6-(hydroxymethyl)-5-(7-methoxy-5-methyl-1-benzothiophen-2-yl)pyrrolo[2,1-f]-[1,2,4]triazin-7-yl]methyl}piperazin-2-one], the half-inhibitory concentration (IC50) against human FGFR-1 was determined as 2.5 nM; on human FGFR-3 it was 10 nM.

For `COc1cc(C)cc2cc(-c3c(CN4CCNC(=O)C4)c(C(C)(C)O)n4ncnc(N)c34)sc12` [Example 74, 4-{[4-Amino-7-(2-hydroxypropan-2-yl)-5-(7-methoxy-5-methyl-1-benzothiophen-2-yl)pyrrolo-[2,1-f][1,2,4]triazin-6-yl]methyl}piperazin-2-one], the IC50 against human FGFR-1 amounted to 4 nM; on human FGFR-3, 1.4 nM. With `COc1cc(C)cc2cc(-c3c(COCCO)c(CN4CCNC(=O)C4)n4ncnc(N)c34)sc12` [Example 21, 4-({4-Amino-6-[(2-hydroxyethoxy)methyl]-5-(7-methoxy-5-methyl-1-benzothiophen-2-yl)pyrrolo-[2,1-f][1,2,4]triazin-7-yl}methyl)piperazin-2-one formiate], the 50% inhibitory concentration (IC50) against human FGFR-1 came out at 4.2 nM; on human FGFR-3 it was 13 nM.

With `COc1cc(C)cc2cc(-c3c(COCC4CC4)c(CN4CCNCC4)n4ncnc(N)c34)sc12` [Example 25, 6-[(Cyclopropylmethoxy)methyl]-5-(7-methoxy-5-methyl-1-benzothiophen-2-yl)-7-(piperazin-1-ylmethyl)pyrrolo[2,1-f][1,2,4]triazin-4-amine bis(formiate)], the results for the concentration for half-maximal inhibition (IC50) against human FGFR-1 and against human FGFR-3 were 0.7 nM and 5.2 nM, respectively. In the same order, the values of `COc1cc(C)cc2cc(-c3c(CN4CCNC(=O)C4)c(C)n4ncnc(N)c34)sc12` [Example 76, 4-{[4-Amino-5-(7-methoxy-5-methyl-1-benzothiophen-2-yl)-7-methylpyrrolo[2,1-f][1,2,4]triazin-6-yl]methyl}piperazin-2-one] are 2.8 nM and 1.4 nM. As for `CCOCc1c(-c2cc3cc(C)cc(OC)c3s2)c2c(N)ncnn2c1C(C)O` (stereo not shown) [Example 90, 1-[4-Amino-6-(ethoxymethyl)-5-(7-methoxy-5-methyl-1-benzothiophen-2-yl)pyrrolo[2,1-f][1,2,4]-triazin-7-yl]ethanol], the IC50 against human FGFR-1 worked out at 9.9 nM; at human FGFR-3 it was 11 nM. Regarding `CCOCc1c(-c2cc3cc(C)cc(OC)c3s2)c2c(N)ncnn2c1CNCC(N)=O` [Example 9, N^2-{[4-Amino-6-(ethoxymethyl)-5-(7-methoxy-5-methyl-1-benzothiophen-2-yl)pyrrolo[2,1-f]-[1,2,4]triazin-7-yl]methyl}glycinamide dihydrochloride], the “mTOR inhibition @ 1 μM” value at human mTOR is given as “no inhib. effect detect”. As for `COc1cc(C)cc2cc(-c3c(CN[C@@H]4CCNC4=O)c(CN4CCN(C(C)=O)CC4)n4ncnc(N)c34)sc12` [Example 56, (3R)-3-[({7-[(4-Acetylpiperazin-1-yl)methyl]-4-amino-5-(7-methoxy-5-methyl-1-benzothiophen-2-yl)pyrrolo[2,1-f][1,2,4]triazin-6-yl}methyl)amino]pyrrolidin-2-one], the IC50 against human FGFR-1 was 2.4 nM; against human FGFR-3, 2 nM. As to `COc1cc(C)cc2cc(-c3c(CN[C@H]4CCNC4=O)c(CN4CCOCC4)n4ncnc(N)c34)sc12` [Example 51, (3S)-3-({[4-Amino-5-(7-methoxy-5-methyl-1-benzothiophen-2-yl)-7-(morpholin-4-ylmethyl)pyrrolo[2,1-f][1,2,4]triazin-6-yl]methyl}amino)pyrrolidin-2-one], the IC50 against human FGFR-1 was 4.4 nM; on human FGFR-3, 3.9 nM. Consider `CCOCc1c(-c2cc3cc(C)cc(OC)c3s2)c2c(N)ncnn2c1CN1CCNC(=O)C1(C)C` [Example 95], for which the IC50 at human FGFR-1 was 17 nM; at human FGFR-3 it was 28.7 nM.

For the compound `COc1cc(C)cc2cc(-c3c(CO)c(C#N)n4ncnc(N)c34)sc12` [Example 68, 4-Amino-6-(hydroxymethyl)-5-(7-methoxy-5-methyl-1-benzothiophen-2-yl)pyrrolo[2,1-f][1,2,4]-triazine-7-carbonitrile], the values for the IC50 against human FGFR-1 and against human FGFR-3 were 27 nM and 42.7 nM, respectively.

As for `COc1cc(C)cc2cc(-c3c(COCC(N)=O)c(CN4CCN(C(C)=O)CC4)n4ncnc(N)c34)sc12` [Example 34, 2-({7-[(4-Acetylpiperazin-1-yl)methyl]-4-amino-5-(7-methoxy-5-methyl-1-benzothiophen-2-yl)pyrrolo[2,1-f][1,2,4]triazin-6-yl}methoxy)acetamide], the half-maximal inhibitory concentration (IC50) on human FGFR-1 was 6 nM; against human FGFR-3 it was 10.5 nM. In the same order, the values of `COc1cc(C)cc2cc(-c3c(CNCC(C)(C)O)c(C)n4ncnc(N)c34)sc12` [Example 78, 1-({[4-Amino-5-(7-methoxy-5-methyl-1-benzothiophen-2-yl)-7-methylpyrrolo[2,1-f][1,2,4]triazin-6-yl]methyl}amino)-2-methylpropan-2-ol] are 1.7 nM and 2 nM.

The record behind these values is US9206184B2, “Disubstituted benzothienyl-pyrrolotriazines and uses thereof” (BAYER INTELLECTUAL PROPERTY GmbH, priority 2011, dated 2015).
